Measurements as given in US20230295200A1 (REGENTS OF THE UNIVERSITY OF MICHIGAN, priority 2022, published 2023).

Experiments:
[1] = target: T1, STAT6 protein (Homo sapiens, UniProt P42226); experiment: Fluorescence polarization (FP) binding assay, STAT6; settings: FP competition, 5 nM fluorescein-labeled tracer, 200 nM protein, PBS pH7.4; read-out: Binding STAT6
T1 sequence (P42226 1-847): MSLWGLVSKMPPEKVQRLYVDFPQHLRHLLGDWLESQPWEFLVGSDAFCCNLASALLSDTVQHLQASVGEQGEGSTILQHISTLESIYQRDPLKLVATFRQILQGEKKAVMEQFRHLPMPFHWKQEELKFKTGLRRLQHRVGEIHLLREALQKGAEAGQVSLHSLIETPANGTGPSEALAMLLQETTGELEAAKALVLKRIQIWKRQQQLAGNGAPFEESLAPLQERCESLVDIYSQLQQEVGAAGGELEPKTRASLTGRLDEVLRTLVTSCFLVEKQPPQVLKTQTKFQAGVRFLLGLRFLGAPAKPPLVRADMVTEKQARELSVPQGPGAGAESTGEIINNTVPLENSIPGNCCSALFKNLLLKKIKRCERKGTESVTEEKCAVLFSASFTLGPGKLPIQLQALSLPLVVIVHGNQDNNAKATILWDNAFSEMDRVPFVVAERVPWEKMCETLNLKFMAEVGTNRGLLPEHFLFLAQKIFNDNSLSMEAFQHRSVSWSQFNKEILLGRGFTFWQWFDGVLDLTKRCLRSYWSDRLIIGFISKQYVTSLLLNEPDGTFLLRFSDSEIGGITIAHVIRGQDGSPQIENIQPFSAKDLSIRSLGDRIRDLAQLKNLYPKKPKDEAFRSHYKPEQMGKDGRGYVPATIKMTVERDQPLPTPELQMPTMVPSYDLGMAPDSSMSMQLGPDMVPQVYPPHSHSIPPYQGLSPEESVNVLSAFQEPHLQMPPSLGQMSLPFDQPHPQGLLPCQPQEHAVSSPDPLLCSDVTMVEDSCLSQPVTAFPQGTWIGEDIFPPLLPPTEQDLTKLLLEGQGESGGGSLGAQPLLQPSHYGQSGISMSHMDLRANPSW
In short: (§1)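 Polarization of a 5 nM fluorescein tracer bound by 200 nM STAT protein, measured after 1 h room-temperature equilibration in buffered PBS pH 7.4 with DTT, gave inhibition constants via nonlinear curve fitting.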

[2] = target: T2, STAT5A (Homo sapiens, UniProt P42229); experiment: Fluorescence polarization (FP) binding assay, STAT5A; settings: FP competition, 5 nM fluorescein-labeled tracer, 200 nM protein, PBS pH7.4
T2 sequence (P42229 1-794): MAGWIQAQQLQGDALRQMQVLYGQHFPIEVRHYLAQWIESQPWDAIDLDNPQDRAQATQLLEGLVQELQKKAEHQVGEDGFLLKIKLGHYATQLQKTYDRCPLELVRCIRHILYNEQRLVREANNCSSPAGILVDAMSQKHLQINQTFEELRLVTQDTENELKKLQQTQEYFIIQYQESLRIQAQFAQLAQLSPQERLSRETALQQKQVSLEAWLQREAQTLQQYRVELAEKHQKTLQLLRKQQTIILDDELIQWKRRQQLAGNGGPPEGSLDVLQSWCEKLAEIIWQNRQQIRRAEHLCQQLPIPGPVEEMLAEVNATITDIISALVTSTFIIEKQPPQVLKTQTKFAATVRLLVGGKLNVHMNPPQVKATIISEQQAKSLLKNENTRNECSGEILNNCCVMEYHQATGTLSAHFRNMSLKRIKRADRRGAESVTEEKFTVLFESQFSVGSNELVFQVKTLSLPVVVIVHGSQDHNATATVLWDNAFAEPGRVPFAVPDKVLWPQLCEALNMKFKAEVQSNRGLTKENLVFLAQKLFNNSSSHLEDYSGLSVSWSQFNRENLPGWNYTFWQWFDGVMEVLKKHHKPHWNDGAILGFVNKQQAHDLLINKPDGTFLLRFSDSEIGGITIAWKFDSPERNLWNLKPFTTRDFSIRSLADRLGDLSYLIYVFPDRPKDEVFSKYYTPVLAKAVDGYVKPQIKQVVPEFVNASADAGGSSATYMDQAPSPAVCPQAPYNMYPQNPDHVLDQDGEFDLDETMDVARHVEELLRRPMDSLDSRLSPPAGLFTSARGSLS
In short: as §1

Compound	Ki [1] [nM]	Ki [2] [nM]
CC(C)(C)[C@H](NC(=O)c1cc2cc(C(F)(F)P(=O)(O)O)ccc2s1)C(=O)N1CCC[C@H]1C(=O)N1CCN(S(C)(=O)=O)[C@@H](c2ccccc2)C1 [Compound 169, ((2-(((S)-3,3-dimethyl-1-((S)-2-((S)-4-(methylsulfonyl)-3-phenylpiperazine-1-carbonyl)pyrrolidin-1-yl)-1-oxobutan-2-yl)carbamoyl)benzo[b]thiophen-5-yl)difluoromethyl)phosphonic acid]	1000 to 10000	> 10000
CC(=O)N1CCN(C(=O)[C@@H](NC(=O)c2cc3cc(C(F)(F)P(=O)(O)O)ccc3s2)C(C)(C)C)[C@H](C(=O)N2CCO[C@@H](c3ccccc3)C2)C1 [Compound 171, ((2-(((S)-1-((S)-4-acetyl-2-((S)-2-phenylmorpholine-4-carbonyl)piperazin-1-yl)-3,3-dimethyl-1-oxobutan-2-yl)carbamoyl)benzo[b]thiophen-5-yl)difluoromethyl)phosphonic acid]	1000 to 10000	> 10000
CC(=O)N1CCN(C(=O)[C@@H](NC(=O)c2cc3cc(C(F)(F)P(=O)(O)O)ccc3s2)C(C)(C)C)[C@H](C(=O)N2CC[C@H](c3ccccc3)C2)C1 [Compound 176, ((2-(((S)-1-((S)-4-acetyl-2-((R)-3-phenylpyrrolidine-1-carbonyl)piperazin-1-yl)-3,3-dimethyl-1-oxobutan-2-yl)carbamoyl)benzo[b]thiophen-5-yl)difluoromethyl)phosphonic acid]	1000 to 10000	1000 to 10000
CC(=O)N1CCN(C(=O)[C@@H](NC(=O)c2cc3cc(C(F)(F)P(=O)(O)O)ccc3s2)C(C)(C)C)[C@H](C(=O)N2CC[C@@H](c3ccccc3)C2)C1 [Compound 177, ((2-(((S)-1-((S)-4-acetyl-2-((S)-3-phenylpyrrolidine-1-carbonyl)piperazin-1-yl)-3,3-dimethyl-1-oxobutan-2-yl)carbamoyl)benzo[b]thiophen-5-yl)difluoromethyl)phosphonic acid]	1000 to 10000	> 10000
CC(C)(C)[C@H](NC(=O)c1cc2cc(C(F)(F)P(=O)(O)O)ccc2s1)C(=O)N1CCCC[C@H]1C(=O)N1Cc2ccccc2C1 [Compound 181, (difluoro(2-(((S)-1-((S)-2-(isoindoline-2-carbonyl)piperidin-1-yl)-3,3-dimethyl-1-oxobutan-2-yl)carbamoyl)benzo[b]thiophen-5-yl)methyl)phosphonic acid]	> 10000	> 10000
CC(C)(C)[C@H](NC(=O)c1cc2cc(C(F)(F)P(=O)(O)O)ccc2s1)C(=O)N1CCCC[C@H]1C(=O)Nc1ncc(-c2ccccc2)s1 [Compound 182, ((2-(((S)-3,3-dimethyl-1-oxo-1-((S)-2-((5-phenylthiazol-2-yl)carbamoyl)piperidin-1-yl)butan-2-yl)carbamoyl)benzo[b]thiophen-5-yl)difluoromethyl)phosphonic acid]	1000 to 10000	100 to 1000
CC(C)(C)[C@H](NC(=O)c1cc2cc(C(F)(F)P(=O)(O)O)ccc2s1)C(=O)N1CCCCC[C@H]1C(=O)N1CC[C@H](c2ccccc2)C1 [Compound 185, ((2-(((S)-3,3-dimethyl-1-oxo-1-((S)-2-((R)-3-phenylpyrrolidine-1-carbonyl)azepan-1-yl)butan-2-yl)carbamoyl)benzo[b]thiophen-5-yl)difluoromethyl)phosphonic acid]	1000 to 10000	1000 to 10000

The remaining lines, values ahead:

Ki [1] [nM]	Ki [2] [nM]	Compound
1000 to 10000	> 10000	CC(C)(C)[C@H](NC(=O)c1cc2cc(C(F)(F)P(=O)(O)O)ccc2s1)C(=O)N1CCC[C@H]1C(=O)N1CCN(S(C)(=O)=O)[C@H](c2ccccc2)C1 [Compound 168, ((2-(((S)-3,3-dimethyl-1-((S)-2-((R)-4-(methylsulfonyl)-3-phenylpiperazine-1-carbonyl)pyrrolidin-1-yl)-1-oxobutan-2-yl)carbamoyl)benzo[b]thiophen-5-yl)difluoromethyl)phosphonic acid]
100 to 1000	1000 to 10000	CC(=O)N1CCN(C(=O)[C@@H](NC(=O)c2cc3cc(C(F)(F)P(=O)(O)O)ccc3s2)C(C)(C)C)[C@H](C(=O)N2CCO[C@H](c3ccccc3)C2)C1 [Compound 170, ((2-(((S)-1-((S)-4-acetyl-2-((R)-2-phenylmorpholine-4-carbonyl)piperazin-1-yl)-3,3-dimethyl-1-oxobutan-2-yl)carbamoyl)benzo[b]thiophen-5-yl)difluoromethyl)phosphonic acid]
100 to 1000	1000 to 10000	CC(=O)N1CCN(C(=O)[C@@H](NC(=O)c2cc3cc(C(F)(F)P(=O)(O)O)ccc3s2)C(C)(C)C)[C@H](C(=O)N2CCC[C@H](c3ccccc3)C2)C1 [Compound 175, ((2-(((S)-1-((S)-4-acetyl-2-((R)-3-phenylpiperidine-1-carbonyl)piperazin-1-yl)-3,3-dimethyl-1-oxobutan-2-yl)carbamoyl)benzo[b]thiophen-5-yl)difluoromethyl)phosphonic acid]
100 to 1000	1000 to 10000	CC(=O)N1CC[C@H]2CC[C@@H](C(=O)N3CCS(=O)(=O)C(c4ccccc4)C3)N2C(=O)[C@@H](NC(=O)c2cc3cc(C(F)(F)P(=O)(O)O)ccc3s2)C1 (stereo partly drawn) [Compound 178, ((2-(((5S,8S,10aR)-3-acetyl-8-(1,1-dioxido-2-phenylthiomorpholine-4-carbonyl)-6-oxodecahydropyrrolo[1,2-a][1,5]diazocin-5-yl)carbamoyl)benzo[b]thiophen-5-yl)difluoromethyl)phosphonic acid]
100 to 1000	1000 to 10000	CC(C)(C)[C@H](NC(=O)c1cc2cc(C(F)(F)P(=O)(O)O)ccc2s1)C(=O)N1CCCC[C@H]1C(=O)N1CCO[C@H](c2ccccc2)C1 [Compound 179, ((2-(((S)-3,3-dimethyl-1-oxo-1-((S)-2-((R)-2-phenylmorpholine-4-carbonyl)piperidin-1-yl)butan-2-yl)carbamoyl)benzo[b]thiophen-5-yl)difluoromethyl)phosphonic acid]
100 to 1000	1000 to 10000	CC(C)(C)[C@H](NC(=O)c1cc2cc(C(F)(F)P(=O)(O)O)ccc2s1)C(=O)N1CCCC[C@H]1C(=O)N1CCC[C@H](c2ccccc2)C1 [Compound 180, ((2-(((S)-3,3-dimethyl-1-oxo-1-((S)-2-((R)-3-phenylpiperidine-1-carbonyl)piperidin-1-yl)butan-2-yl)carbamoyl)benzo[b]thiophen-5-yl)difluoromethyl)phosphonic acid]
100 to 1000	1000 to 10000	CC(C)(C)[C@H](NC(=O)c1cc2cc(C(F)(F)P(=O)(O)O)ccc2s1)C(=O)N1CCCCC[C@H]1C(=O)N1CCO[C@H](c2ccccc2)C1 [Compound 183, ((2-(((S)-3,3-dimethyl-1-oxo-1-((S)-2-((R)-2-phenylmorpholine-4-carbonyl)azepan-1-yl)butan-2-yl)carbamoyl)benzo[b]thiophen-5-yl)difluoromethyl)phosphonic acid]
100 to 1000	1000 to 10000	CC(C)(C)[C@H](NC(=O)c1cc2cc(C(F)(F)P(=O)(O)O)ccc2s1)C(=O)N1CCCCC[C@H]1C(=O)N1CCC[C@H](c2ccccc2)C1 [Compound 184, ((2-(((S)-3,3-dimethyl-1-oxo-1-((S)-2-((R)-3-phenylpiperidine-1-carbonyl)azepan-1-yl)butan-2-yl)carbamoyl)benzo[b]thiophen-5-yl)difluoromethyl)phosphonic acid]
